In PMC6277434, “Discovery of a potent HMG-CoA reductase degrader that eliminates statin-induced reductase accumulation and lowers cholesterol” (Nature Communications, 2018):
Like-named read-outs stand apart in the source and are kept apart here.

Legend:
HMGCR (TM1-8)-GFP [1] = target: T1, HMGCR (TM1-8)-GFP (Cricetulus griseus, UniProt P00347)
T1 sequence (P00347 1-346): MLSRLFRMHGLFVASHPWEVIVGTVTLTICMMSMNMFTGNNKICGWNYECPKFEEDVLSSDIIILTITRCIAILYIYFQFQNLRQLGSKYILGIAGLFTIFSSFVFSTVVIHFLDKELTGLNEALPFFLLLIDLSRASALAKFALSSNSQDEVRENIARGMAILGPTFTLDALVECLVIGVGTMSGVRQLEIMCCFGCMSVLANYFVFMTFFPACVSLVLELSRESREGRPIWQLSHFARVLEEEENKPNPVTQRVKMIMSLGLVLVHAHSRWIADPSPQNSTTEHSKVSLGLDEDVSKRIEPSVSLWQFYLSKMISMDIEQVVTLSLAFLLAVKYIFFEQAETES

HMGCR (TM1-8)-GFP [2] = target: T1, HMGCR (TM1-8)-GFP; experiment: HMGCR (TM1-8)-GFP fluorescent assay (high-content imaging) in CHG cells; settings: for effect on HMGCR (TM1-8)-GFP intensity: CHG cells
[3] = 16 h, read-out: HMGCR (TM1-8)-GFP fluorescent intensity, mean
[4] = read-out: Mean (HMGCR (TM1-8)-GFP signal relative to 0 μM = 100)

SMILES | DC50 (HMGCR (TM1-8)-GFP [1]) [µM] | remaining activity at 0.01 µM (HMGCR (TM1-8)-GFP [2]; [3]) [%] | remaining activity at 0.1 µM (HMGCR (TM1-8)-GFP [2]; [3]) [%] | remaining activity at 0.3 µM (HMGCR (TM1-8)-GFP [2]; [3]) [%] | remaining activity at 1 µM (HMGCR (TM1-8)-GFP [2]; [3]) [%] | remaining activity at 3 µM (HMGCR (TM1-8)-GFP [2]; [3]) [%] | remaining activity at 10 µM (HMGCR (TM1-8)-GFP [2]; [3]) [%] | remaining activity at 20 µM (HMGCR (TM1-8)-GFP [2]; [3]) [%] | remaining activity at 30 µM (HMGCR (TM1-8)-GFP [2]; [3]) [%] | effect on HMGCR (TM1-8)-GFP intensity (HMGCR (TM1-8)-GFP [2]; 16 h) | remaining activity at 0.03 µM (HMGCR (TM1-8)-GFP [2]; [3]) [%] | remaining activity at 0.156 µM (HMGCR (TM1-8)-GFP [2]; [4]) [%] | remaining activity at 0.313 µM (HMGCR (TM1-8)-GFP [2]; [4]) [%] | remaining activity at 0.625 µM (HMGCR (TM1-8)-GFP [2]; [4]) [%] | remaining activity at 1.25 µM (HMGCR (TM1-8)-GFP [2]; [4]) [%] | remaining activity at 2.5 µM (HMGCR (TM1-8)-GFP [2]; [4]) [%] | remaining activity at 5 µM (HMGCR (TM1-8)-GFP [2]; [4]) [%] | remaining activity at 10 µM (HMGCR (TM1-8)-GFP [2]; [4]) [%]
CC(C)CCC[C@@H](C)[C@H]1CC[C@H]2[C@@H]3CC=C4C(C)(C)[C@@H](O)CC[C@]4(C)[C@H]3CC[C@]12C [Compound 7, 4,4-Dimethyl cholesterol] | 14.6 | 101 | 104 | 92.8 | 83.5 | 71.9 | 56.7 | 47.9 | 35.9 | – | – | – | – | – | – | – | – | –
CCC1(CC)C2=CCC3C(CC[C@@]4(C)C3CC[C@@H]4[C@H](C)CCCC(C)C)[C@@]2(C)CC[C@@H]1O (stereo partly drawn) [Compound 8] | – | – | 90.5 | 79.5 | 82.7 | 83.2 | 89.3 | 91.4 | 93.9 | did not decrease the HMGCR (TM1-8)-GFP intensity | – | – | – | – | – | – | – | –
C=CCC1(CC=C)C2=CCC3C(CC[C@@]4(C)C3CC[C@@H]4[C@H](C)CCCC(C)C)[C@@]2(C)CC[C@@H]1O (stereo partly drawn) [Compound 9] | – | – | 95.3 | 92.7 | 80.9 | 90.8 | 93.7 | 88.7 | 90.8 | did not decrease the HMGCR (TM1-8)-GFP intensity | – | – | – | – | – | – | – | –
CC(C)CCC[C@@H](C)[C@H]1CCC2C3CC=C4C5(CCCCC5)[C@@H](O)CC[C@]4(C)C3CC[C@@]21C (stereo partly drawn) [Compound 10] | – | – | 100 | 106 | 92.7 | 102 | 103 | 98.6 | 101 | did not decrease the HMGCR (TM1-8)-GFP intensity | – | – | – | – | – | – | – | –
CCC1(CCOC)C2=CCC3C(CCC4(C)C(C(C)CCCC(C)C)CCC34)C2(C)CCC1O (stereo not drawn) [Compound 11] | – | – | 90.8 | 97.1 | 100 | 91.7 | 93.3 | 97.4 | 95.4 | did not decrease the HMGCR (TM1-8)-GFP intensity | – | – | – | – | – | – | – | –
COCCC1(CCOC)C2=CCC3C(CC[C@@]4(C)C3CC[C@@H]4[C@H](C)CCCC(C)C)[C@@]2(C)CC[C@@H]1O (stereo partly drawn) [Compound 14] | – | – | 90.2 | 107 | 99.6 | 93.4 | 99.4 | 106 | 98.6 | did not decrease the HMGCR (TM1-8)-GFP intensity | – | – | – | – | – | – | – | –
CC(C)CCC[C@@H](C)[C@H]1CCC2C3C(CC[C@@]21C)[C@@]1(C)CC[C@H](O)C(C)(C)C1=C[C@H]3N=[N+]=[N-] (stereo partly drawn) [Compound 18] | – | – | 99.5 | 103 | 103 | 99.4 | 96.7 | 98.8 | 93 | – | – | – | – | – | – | – | – | –
CC(C)CCC[C@@H](C)[C@H]1CCC2C3C(CC[C@@]21C)[C@@]1(C)CC[C@H](O)C(C)(C)C1=C[C@H]3N (stereo partly drawn) [Compound 19] | – | – | 90.2 | 107 | 99.6 | 93.4 | 99.4 | 106 | 99.6 | – | – | – | – | – | – | – | – | –
CC(=O)N[C@@H]1C=C2C(C)(C)[C@@H](O)CC[C@]2(C)C2CC[C@@]3(C)C(CC[C@@H]3[C@H](C)CCCC(C)C)C21 (stereo partly drawn) [Compound 22] | – | – | 97.3 | 91.4 | 89.7 | 101 | 97.5 | 97.9 | 93.5 | – | – | – | – | – | – | – | – | –
CC(C)CCC[C@@H](C)[C@H]1CCC2C3C(=O)C=C4C(C)(C)[C@@H](O)CC[C@]4(C)C3CC[C@@]21C (stereo partly drawn) [Compound 33] | – | – | 93 | 97.3 | 94.4 | 96.3 | 95.2 | 85 | – | – | – | – | – | – | – | – | – | –
CC(C)CCC[C@@H](C)[C@H]1CCC2C3C(=NO)C=C4C(C)(C)[C@@H](O)CC[C@]4(C)C3CC[C@@]21C (stereo partly drawn) [Compound 34] | 60.8 | – | 103 | 93.6 | 75.2 | 65.6 | 62 | 65.8 | 62.1 | – | 99.1 | – | – | – | – | – | – | –
CC(C)CCC[C@@H](C)[C@H]1CC[C@H]2[C@@H]3[C@@H](O)C=C4C(C)(C)[C@@H](O)CC[C@]4(C)[C@H]3CC[C@]12C [Compound 35, 4,4-Dimethyl 7β-hydroxyl cholesterol] | 3.6 | 100 | 87.1 | 83.8 | 68.2 | 54.5 | 37 | 20 | – | – | 104 | – | – | – | – | – | – | –
CC(C)CCC[C@@H](C)[C@H]1CCC2C3C(CC[C@@]21C)[C@@]1(C)CC[C@H](O)C(C)(C)C1=C[C@H]3O (stereo partly drawn) [Compound 36] | 11.9 | 106 | 108 | 91.3 | 93.6 | 69.8 | 58.6 | 37.2 | – | – | 91.7 | – | – | – | – | – | – | –
COC(=O)CC[C@@H](C)C1CCC2C3C(CC[C@@]21C)[C@@]1(C)CC[C@H](O)C(C)(C)C1=C[C@@H]3O (stereo partly drawn) [Compound 49] | 6.67 | – | – | – | – | – | – | – | – | – | – | 93 | 100 | 100 | 93 | 78.9 | 58.3 | 37.6
C[C@H](CCC(=O)O)C1CCC2C3C(CC[C@@]21C)[C@@]1(C)CC[C@H](O)C(C)(C)C1=C[C@@H]3O (stereo partly drawn) [Compound 50] | – | – | – | – | – | – | – | – | – | – | – | 98.8 | 106 | 105 | 105 | 103 | 100 | 98.3
C[C@H](CCCO)C1CCC2C3C(CC[C@@]21C)[C@@]1(C)CC[C@H](O)C(C)(C)C1=C[C@@H]3O (stereo partly drawn) [Compound 51] | 9.08 | – | – | – | – | – | – | – | – | – | – | 98.3 | 102 | 101 | 92.8 | 82.2 | 67.8 | 47.7
COCCC[C@@H](C)C1CCC2C3C(CC[C@@]21C)[C@@]1(C)CC[C@H](O)C(C)(C)C1=C[C@@H]3O (stereo partly drawn) [Compound 55] | 2.29 | – | – | – | – | – | – | – | – | – | – | 100 | 100 | 83 | 63.8 | 43.1 | 28.5 | 21.9
C[C@H](CCC(C)(C)O)C1CCC2C3C(CC[C@@]21C)[C@@]1(C)CC[C@H](O)C(C)(C)C1=C[C@@H]3O (stereo partly drawn) [Compound 56] | 52.1 | – | – | – | – | – | – | – | – | – | – | 88.3 | 94.2 | 92.2 | 79.4 | 78.7 | 72.2 | 69.4
CCC(O)(CC)CC[C@@H](C)C1CCC2C3C(CC[C@@]21C)[C@@]1(C)CC[C@H](O)C(C)(C)C1=C[C@@H]3O (stereo partly drawn) [Compound 57] | 1.75 | – | – | – | – | – | – | – | – | – | – | 96.7 | 90.2 | 75.6 | 53.1 | 36.2 | 26 | 23.7
C=CCC(O)(CC=C)CC[C@@H](C)C1CCC2C3C(CC[C@@]21C)[C@@]1(C)CC[C@H](O)C(C)(C)C1=C[C@@H]3O (stereo partly drawn) [Compound 58] | 4.5 | – | – | – | – | – | – | – | – | – | – | 106 | 110 | 104 | 92.1 | 68.2 | 43.8 | 25.3
CC(O)CC[C@@H](C)C1CCC2C3C(CC[C@@]21C)[C@@]1(C)CC[C@H](O)C(C)(C)C1=C[C@@H]3O (stereo partly drawn) [Compound 63] | 2.96 | – | – | – | – | – | – | – | – | – | – | 100 | 97.9 | 86.9 | 73.2 | 50.1 | 37.4 | 21
COCCCCC[C@@H](C)C1CCC2C3C(CC[C@@]21C)[C@@]1(C)CC[C@H](O)C(C)(C)C1=C[C@@H]3O (stereo partly drawn) [Compound 95] | 2.34 | – | – | – | – | – | – | – | – | – | – | – | – | – | – | – | – | –
C[C@H](CCCCCO)C1CCC2C3C(CC[C@@]21C)[C@@]1(C)CC[C@H](O)C(C)(C)C1=C[C@@H]3O (stereo partly drawn) [Compound 96] | 2.96 | – | – | – | – | – | – | – | – | – | – | – | – | – | – | – | – | –
